One series concerns the target T1, Histone deacetylase 11 (Homo sapiens, UniProt Q96DB2).
T1 sequence (Q96DB2 whole entry): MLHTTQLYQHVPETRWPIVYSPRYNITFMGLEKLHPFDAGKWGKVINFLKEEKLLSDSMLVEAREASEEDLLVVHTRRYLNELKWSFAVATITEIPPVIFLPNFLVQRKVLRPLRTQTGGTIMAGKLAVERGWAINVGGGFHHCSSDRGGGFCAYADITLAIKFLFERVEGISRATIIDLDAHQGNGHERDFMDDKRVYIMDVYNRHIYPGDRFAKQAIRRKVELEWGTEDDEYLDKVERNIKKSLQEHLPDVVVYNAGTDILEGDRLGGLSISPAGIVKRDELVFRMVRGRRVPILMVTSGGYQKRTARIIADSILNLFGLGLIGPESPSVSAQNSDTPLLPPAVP
Description: Inhibition of recombinant full length human HDAC11 expressed in baculovirus infected Sf9 cells using FAM-RHKK-TFAc as substrate incubated for 17 hrs by electrophoretic mobility shift assay.

The target of series [1] is T2, Protein deacetylase HDAC6 (Homo sapiens, UniProt Q9UBN7).
T2 sequence (Q9UBN7 whole entry): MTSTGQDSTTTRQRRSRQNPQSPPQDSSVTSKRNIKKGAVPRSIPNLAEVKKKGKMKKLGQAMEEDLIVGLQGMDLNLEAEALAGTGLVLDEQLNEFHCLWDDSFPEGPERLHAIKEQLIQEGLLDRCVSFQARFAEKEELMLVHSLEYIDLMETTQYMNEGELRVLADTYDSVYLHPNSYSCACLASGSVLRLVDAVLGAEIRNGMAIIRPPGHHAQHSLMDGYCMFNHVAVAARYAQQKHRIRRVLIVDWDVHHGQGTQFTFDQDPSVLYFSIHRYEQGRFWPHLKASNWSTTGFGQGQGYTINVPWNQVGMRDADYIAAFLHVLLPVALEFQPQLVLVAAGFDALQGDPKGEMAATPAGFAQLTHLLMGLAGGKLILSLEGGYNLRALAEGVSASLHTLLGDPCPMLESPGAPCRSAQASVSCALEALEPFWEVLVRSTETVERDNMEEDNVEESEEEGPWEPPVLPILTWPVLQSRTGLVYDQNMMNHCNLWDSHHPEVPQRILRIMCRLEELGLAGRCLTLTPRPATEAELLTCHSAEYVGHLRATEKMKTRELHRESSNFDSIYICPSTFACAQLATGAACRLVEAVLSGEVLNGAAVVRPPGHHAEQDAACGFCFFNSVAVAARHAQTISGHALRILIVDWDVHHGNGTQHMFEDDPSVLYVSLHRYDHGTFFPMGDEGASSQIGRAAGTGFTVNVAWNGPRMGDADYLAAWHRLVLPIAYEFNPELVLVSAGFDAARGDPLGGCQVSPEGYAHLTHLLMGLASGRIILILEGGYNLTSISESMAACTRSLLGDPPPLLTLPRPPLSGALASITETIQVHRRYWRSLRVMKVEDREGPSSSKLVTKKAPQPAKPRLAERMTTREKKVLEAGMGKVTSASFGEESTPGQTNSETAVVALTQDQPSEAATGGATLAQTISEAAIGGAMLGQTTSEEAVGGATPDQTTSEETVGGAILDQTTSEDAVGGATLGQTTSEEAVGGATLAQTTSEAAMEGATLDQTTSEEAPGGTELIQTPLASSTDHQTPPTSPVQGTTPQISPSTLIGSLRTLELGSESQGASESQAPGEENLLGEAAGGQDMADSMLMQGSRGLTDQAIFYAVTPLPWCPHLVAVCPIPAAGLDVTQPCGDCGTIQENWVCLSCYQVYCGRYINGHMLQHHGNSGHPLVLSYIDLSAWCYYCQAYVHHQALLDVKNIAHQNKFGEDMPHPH
The experiment in a line: Inhibition of recombinant full length human HDAC6 expressed in baculovirus infected Sf9 cells assessed as inhibitory constant using FAM-RHKK-Ac as substrate incubated for 5 hrs by electrophoretic mobility shift assay.

Series [2] can be described thus: Cytotoxicity against human MRC9 cells assessed as reduction in cell viability incubated for 72 hrs by cell-titer blue assay. The class given is cell-based. The settings on record: MRC9, 72 h.
The target in the next series is Histone deacetylase 1 (Homo sapiens, UniProt Q13547). Description: Inhibition of recombinant full length human HDAC1 expressed in baculovirus infected Sf9 cells using FAM-RHKK-Ac as substrate incubated for 17 hrs by electrophoretic mobility shift assay.
Chain of Histone deacetylase 1 (Q13547 whole entry): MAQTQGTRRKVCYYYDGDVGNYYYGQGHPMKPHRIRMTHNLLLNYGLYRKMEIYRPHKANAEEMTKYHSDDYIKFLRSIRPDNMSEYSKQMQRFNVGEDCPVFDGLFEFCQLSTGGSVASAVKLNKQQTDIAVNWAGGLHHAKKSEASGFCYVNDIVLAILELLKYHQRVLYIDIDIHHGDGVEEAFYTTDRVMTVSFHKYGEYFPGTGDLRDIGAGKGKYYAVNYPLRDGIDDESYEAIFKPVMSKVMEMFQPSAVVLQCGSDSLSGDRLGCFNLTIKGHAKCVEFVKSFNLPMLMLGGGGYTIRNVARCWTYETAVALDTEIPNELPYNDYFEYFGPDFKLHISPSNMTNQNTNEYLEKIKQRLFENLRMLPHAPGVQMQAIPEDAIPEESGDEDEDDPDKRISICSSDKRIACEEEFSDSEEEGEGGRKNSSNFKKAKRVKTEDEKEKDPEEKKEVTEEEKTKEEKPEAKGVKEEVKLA
Another series has as its system MV4-11. The experiment in a line: Induction of apoptosis in human MV4-11 cells assessed as late apoptotic cells incubated for 18 hrs by annexin V FITC and PI based flow cytometry. The class given is functional, cell-based.
The nature of series [3]: Apparent permeability from apical to basolateral side in human Caco2 cells incubated for 2 hrs by LC/MS analysis. The class given is ADME, cell-based, Caco-2. To be noted: Caco-2.
In series [4] the target is Histone deacetylase (Homo sapiens) (UniProt Q13547+O15379+Q9UBN7+Q92769+Q9UQL6+Q8WUI4+Q9BY41+Q96DB2+P56524+Q9UKV0+Q969S8). Description: Inhibition of HDAC in human MV4-11 cells assessed as […] in acetylated histone H3 at 0.1 to 10 uM incubated for 6 hrs by Western blot analysis. The class given is cell-based.

Experimental findings from ChEMBL document CHEMBL4373747 (ACS Med Chem Lett, 2020) are described below.

Activity calls are given as the source filed them. No cut-off for these calls is given here. A value given as a limit tells only on which side of the number the result lay.

In the case of `CC(C)(C)c1ccc(C(=O)Nc2ccc(C(=O)NO)cc2)cc1`, the 50% inhibitory concentration (IC50) was over 1000 nM on Histone deacetylase 11, 33200 nM in series [2] and 605 nM at Histone deacetylase 1. The Ki in series [1] came to 35 nM. Besides, in the series with MV4-11, the Activity result is “Dose-dependent effect”. In addition, in series [3], the apical-to-basolateral permeability (Papp A→B) at 2 h is 3.45 ×10⁻⁶ cm/s. Further, the inhibition result in series [4] was “Active”.
